Laboratory results as given in patent US8465973B2, “Topical compositions containing phosphorylated polyphenols” (Estee Lauder Coordination Center N.V., priority 2004, dated 2013).
≈ marks a conversion by molar mass, not a printed value. Blank lines part the entries; values can stand above or below the compound they belong to.

Legend:
[1] = Stability of resveratrol triphosphate in solid and water solution form; assay type: physicochemical
From the text: (§1) In contrast, the solubility and stability of the resveratrol triphosphate tested under the same conditions, in water of different pH, in the range of 4 to 9, at room temperature.

[2] = tested on: extractable fraction of human SC D-squame tape strippings (acid phosphatase present on the skin); assay: Dephosphorylation of resveratrol^Pi by extractable fraction of stratum corneum D-squame tape strippings; conditions: resveratrol^Pi 0.22 mg/ml or 0.47 mM, FIG. 3; for correlation (r) of amount with incubation time: N=15
Experimental: D-squame tape strippings were collected on the inner lower arm of one panelist. […] The extractable fraction was transferred to another vial and mixed with resveratrol^Pi stock-solution. The concentration of resveratrol^Pi during the incubation was 0.22 mg/ml or 0.47 mM. At various incubation time points a 25 μl aliquot of the incubation mixture was diluted in 25 μl 10 mM o-phosphoric acid and 50 μl of MeOH and injected onto the HPLC system.

[3] = Water solubility of resveratrol and resveratrol triphosphate; assay type: physicochemical
Experimental: The water solubility of resveratrol is tested at pH 7 in 1 mM potassium phosphate buffer at room temperature. Ten mg of resveratrol (M.W. 228.24) are suspended in 10 ml of buffer. This suspension, corresponding to a concentration of 1 g/l or 4.38 mM, is agitated for 24 hours in a rotary shaker at 25° C. in the dark. The sample is centrifuged at 14,000 rpm for 5 minutes and an OD of 6.26 is determined at 305 nm wavelength at which the ε mM of resveratrol has a value of 28.1. Assuming complete solubility of resveratrol, the OD that should have been obtained is 123.1 (4.38×28.1). With an observed OD of 6.26, the percentage of dissolved resveratrol is 5.1% (6.26×100/123.1) or […].
as §1

[4] = Visual (color) stability of a cosmetic formulation; assay type: physicochemical; conditions: for color of formulation: 0.1% resveratrol or 0.2% resveratrol^Pi in base formula
Experimental: Three base formulas are prepared, the control containing no resveratrol, the other two formulas being identical to the control but for one containing 0.1% unmodified resveratrol, and the other containing 0.2% of phosphorylated resveratrol (Resveratrol^Pi).
The color of the control base is white, and with addition of the resveratrols, it takes on a light beige color. Each formulation is observed once a week for a period of four weeks to determine the presence of a color change (indicative of changing color stability), under three different environmental conditions: 50° C., 4° C., and room temperature (RT).

[5] = tested on: acid phosphatase from wheat germ; assay: Enzymatic dephosphorylation of resveratrol^Pi by acid phosphatase, HPLC analysis; conditions: resveratrol^Pi 1.6 mg/ml, acid phosphatase 0.056 U/ml, pH 5.5; FIG. 2
Experimental: The experimental conditions for the HPLC analysis of resveratrol are shown below.
Phosphorylated resveratrol was incubated in the presence of acid phosphatase from wheat germ (Sigma, P3627 lot 081K7071) in 0.147M (NH4)2SO4/0.81 mM MgCl2 pH 5.5. The concentration of resveratrol^Pi and acid phosphatase was 1.6 mg/ml and 0.056 U/ml respectively. Aliquots were taken at different time intervals and analysed by HPLC (conditions see above).

Compound: resveratrol triphosphate
- stability [1]: stable in both solid and water solution form for periods in excess of one year
- correlation (r) of amount with incubation time [2]: −0.69
- conversion on incubation with extractable fraction of SC D-squame tape strippings (HPLC) ([2]; pH 5.6): decreased gradually
- solubility ([3]; water of different pH, range 4 to 9, room temperature): > 30 % w/v
- color development versus unmodified resveratrol ([4]; at the end of four weeks): less color development than the unmodified resveratrol
- conversion on treatment with acid phosphatase (HPLC) [5]: decreased gradually

Compound: resveratrol diphosphate
- incubation time at which the maximum amount is reached [5]: around 85 minutes

- correlation (r) of amount with incubation time [2]: 0.99
- solubility at 24 h ([3]; 25 °C, pH 7, aqueous buffer, thermodynamic from solid): 5.1 µg/mL (≈ 22.3 µM)
- percentage of dissolved resveratrol ([3]; pH 7, 1 mM potassium phosphate buffer, 1 g/l suspension, 24 hours, 25° C., OD at 305 nm): 5.1%
- color of formulation ([4]; 1 week, 4° C.): lt beige
- color of formulation ([4]; 1 week, 50° C.): lt beige
- color of formulation ([4]; 1 week, room temperature): lt beige
- color of formulation ([4]; 2 weeks, 4° C.): lt beige
- color of formulation ([4]; 2 weeks, 50° C.): lt beige
- color of formulation ([4]; 2 weeks, room temperature): lt beige
- color of formulation ([4]; 3 weeks, 4° C.): lt beige
- color of formulation ([4]; 3 weeks, room temperature): lt beige
- color of formulation ([4]; 4 weeks, 4° C.): lt beige (sl lighter beige than RT)
- color of formulation ([4]; 4 weeks, room temperature): lt beige/beige
Compound: Oc1ccc(/C=C/c2cc(O)cc(O)c2)cc1 [resveratrol]
- color of formulation ([4]; 3 weeks, 50° C.): lt beige (vsl darker with sl top oxidation)
- color of formulation ([4]; 4 weeks, 50° C.): beige (sl darker than RT with top oxidation)
